# Test results reported in US20090123389A1, “Methods for modulating Th17 cell development in the treatment and prevention of cellulite” (priority 2007, published 2009).
# Legend:
# CD4+ CD25− T cells = experiment: Quantitative real-time PCR of AAR-associated genes in activated T cells; type: cell-based, mouse; settings: 10 nM HF, within 4 hours of T cell activation
# Protocol: FIG. 12C is a graph depicting the results of quantitative real-time PCR performed on cDNA generated from resting naïve T cells (TN) or T cells activated for 4 hours in the presence of 10 nM MAZ1310 or 10 nM HF. Asns, Gpt2 or eIF4Ebp1 mRNA expression was normalized to Hprt levels and data are presented as mean values±SD in duplicate samples.
# Quantitative real-time PCR: T cells were activated as described above, collected at the indicated times and pellets were flash-frozen in liquid nitrogen. Total RNA was obtained by RNeasy (Quiagen, Valencia, Calif.) column purification per manufacturers instructions. RORγt expression was determined after reverse transcription using the message sensor kit (Ambion, Austin, Tex.) per manufacturers instructions and taqman primers and probe as described elsewhere (I. Ivanov, et al., Cell 126, 1121, 2006). Sybrgreen quantitative real-time PCR was performed on T cell RNA samples following reverse transcription via SuperScript II first-strand cDNA synthesis kit (Invitrogen, Carlsbad, Calif.). All PCR data was collected on an iCycler thermal cycler (Biorad, Hercules, Calif.). Primer sequences used for detecting stress response genes are listed below.
# [1] = system: amino acid response (AAR) pathway; experiment: eIF2α phosphorylation and ATF4 protein in T cells (immunoblot); type: cell-based, mouse
# Protocol: Whole cell lysates were prepared 4 hours-post TCR activation and immunoblotting was performed with the indicated antibodies. ATF4 protein is indicated by arrowhead. NS—non-specific band.
# FIG. 12E is an illustration depicting immunoblot analysis of purified CD4^+ CD25^− T cells activated through the TCR for the indicated times without exogenous cytokines in the presence of either 10 nM MAZ1310 or 10 nM HF as indicated. Whole cells lysates were prepared during the timecourse and immunoblotting was performed.
# Cultures were further supplemented with either 10 nM MAZ1310 or 10 nM HF as indicated. Whole cell lysates were generated 4 hours after activation and immunoblotting was performed. Microarray data were generated from triplicate samples and all other data are representative of at least 2 similar experiments.
# Western blotting: Whole cell lysates were generated from T cells activated for the indicated times. For STAT3 and Smad2/3 western blots cells were harvested, washed in PBS and lysed in 50 mM Tris, pH 7.4, 0.1% SDS, 1% Triton-×100, 140 mM NaCl, 1 mM EDTA, 1 mM EGTA supplemented with protease inhibitors tablets (Roche—Germany), 1 mM NaF and 1 mM Na3VO4. For eIF2α and ATF4 western blots, cells were harvested as above and lysed in 50 mM Tris, pH 7.4, 2% SDS, 20% glycerol and 2 mM EDTA supplemented with protease and phosphatase inhibitors as above. All lysates were cleared via centrifugation and 15-30 μg of protein was resolved by SDS-PAGE. Protein was transferred to nitrocellulose membranes, blocked and blotted using specific antibodies. Antibodies used for western blot analysis were anti-phospho-Smad2, anti-STAT3 (pY705), anti-STAT3, anti-eIF2α^pS51, anti-eIF2α, anti-GCN2^pT898, anti-GCN2 (all from cell signaling technology, Danvers, Mass.). Anti-ATF4/CREB2 and anti-β-actin were purchased from Santa Cruz biotechnology (Santa Cruz, Calif.). HRP-conjugated secondary antibodies were all purchased from Sigma, with the exception of HRP-conjugated anti-armenian hamster antibody (Jackson Immunoresearch—West Grove, Pa.).
# Jurkat T cells = experiment: Apoptosis of Jurkat T cells (Annexin V / PI, flow cytometry); type: cell-based; settings: 100 nM HF, cultured for 30 hours
# Protocol: The non-specific cytoxicity of HF in both normal and transformed T-cells at high doses was evaluated. Anti-CD3/anti-CD28 activated primary T cells were harvested 6 days after activation and cultured in the presence of IL-2 with or without HF (100 nM). As a positive control, some T cells were cultured without IL-2 to induce apoptosis (FIG. 3A). Jurkat T cells, a transformed T cell leukemia line, were cultured in complete medium with or without HF (100 nM) as indicated (FIG. 3B). Both primary and Jurkat T cells were cultured for 30 hours and programmed cell death, i.e. apoptosis, was determined by Annexin V staining and propidium iodide (PI) uptake and cells were analyzed by flow cytometry. The percent of apoptotic T cells at each time point was plotted and was defined as Annexin V^+ PI^−. […] In further experiments, titrating amounts of HF were added to primary T cells and apoptosis was determine as above at the indicated time points. At 100 nM HF, but not 30 nM or lower, generalized T-cell apoptosis was observed (FIG. 3C).
compound,measurement,setting,value
"O=C(CC1NCCCC1O)Cn1cnc2cc(Br)c(Cl)cc2c1=O (racemic) [HF, 7-bromo-6-chloro-3-[3-(3-hydroxy-2-piperidinyl)-2-oxopropyl]-4(3H)-quinazolinone]","AAR-associated genes (Asns, Gpt2, eIF4Ebp1) mRNA by qPCR",CD4+ CD25− T cells,induced
same,time at which eIF2α phosphorylation reached maximum levels,[1]; 10 nM HF,≤ 2 h
same,time until which ATF4 protein continued to accumulate,[1]; 10 nM HF,4 h
same,"eIF2α phosphorylation in resting naïve T cells and T cells in Th17, ThN, Th1, Th2 and iTreg conditions","[1]; 10 nM HF, 4 hours",induced eIF2α phosphorylation
same,induction of ATF4 expression by T cell state,"[1]; 10 nM HF, 4 hours",in all differentiated T cells but not in naïve T cells
same,HF concentration at which eIF2α phosphorylation plateaued,[1]; 4 hours-post TCR activation,5 to 10 nM
same,HF concentration inducing detectable eIF2α phosphorylation,[1]; 4 hours-post TCR activation,2.5 nM
same,HF concentration with highest ATF4 expression levels,[1]; 4 hours-post TCR activation,5 to 10 nM
same,HF concentration with reduced ATF4 expression,[1]; 4 hours-post TCR activation,20 to 40 nM
same,apoptosis of Jurkat T cells,Jurkat T cells,significant apoptosis
